Results taken from patent US20140363526A1, “SYNERGISTIC FORMULATION OF PLANT EXTRACTS FOR HEPATIC AND ADRENAL DISORDERS” (Bioved Pharmaceuticals, Inc., priority 2013, published 2014).

System: dexamethasone induced triglyceride synthesis in human subcutaneous pre-adipocytes
Assay: Inhibition of long term dexamethasone induced triglyceride synthesis
Type: cell-based
Details: single extracts 1 μg/ml, combined formulation 10 μg/ml, vs DMSO control
Procedure: The study was conducted at a reputed US Contract Research Lab which has access to pooled human subcutaneous pre-adipocytes (female, average age 54.2, average BMI 27.9) from twelve different donors. These were cultured in 96-well plates in DMEM/Ham's F-12 (1:1, v/v) with 10% fetal bovine serum and differentiated according to a standard protocol. The next day, the pre-adipocyte medium was removed and replaced with differentiation medium; namely insulin, dexamethasone and IBMX (3-isobutyl-1-methylxanthine, a competitive nonselective phosphodiesterase inhibitor and a nonselective adenosine receptor antagonist. The media containing the formulations were prepared by different methods (individually and combined). After seven days, 90 μl of differentiation medium was removed and replaced with 120 μl of adipocyte medium (containing dexamethasone and insulin in DMEM). After seven more days, cells were assayed for cytotoxicity and cellular triglyceride content.
Cellular triglycerides were measured by a two-step procedure. […] After 15 minutes, the optical density of each well of the new plate was measured at 540 nm. The absorbance values of the unknown samples were converted to glycerol concentrations by correlation to the glycerol concentration standards using the generated linear regression equation.

TNF-a was tested, and the “inhibition of TG synthesis” value was “significantly reduced TG synthesis”.
